Experimental data as given in patent US9896443B2, “Perforin inhibiting benzenesulfonamide compounds, preparation and uses thereof” (Peter MacCallum Cancer Institute, priority 2012, dated 2018).
Like-named read-outs stand apart in the source and are kept apart here.

Legend:
recombinant perforin = recombinant perforin (UniProt P10820); assay type: cell-based
Protocol: Inhibition of perforin-mediated lysis of Jurkat cells.
The ability of the compounds to inhibit the lysis of nucleated (Jurkat T lymphoma) cells in the presence of 0.1% BSA, as measured by release of ^51Cr was measured. Jurkat target cells were labelled by incubation in medium with 100 μCi ^51Cr for one hour. The cells were then washed three times to remove unincorporated isotope and re-suspended at 1×10^5 cells per mL in RPMI buffer supplemented with 0.1% BSA. […] Each data point was performed in triplicate and an IC50 was calculated from the range of concentrations described to above.

[1] = system: KHYG-1 NK cell-mediated lysis of K562 cells; test: Inhibition of KHYG-1 NK cell-mediated lysis of K562 cells (51Cr release); assay type: cell-based; conditions: 4 h, K562 target cells, Effector:Target 2:1, 4 hours at 37° C.
Protocol: Inhibition of KHYG-1 NK Cell-Mediated Lysis of K562 Cells.
Test compounds were added to KHYG-1 cells at various concentrations up to 20 µM and incubated at RT for 20 minutes. 1×10^6 K562 target cells were labelled with 75 μCi ^51Cr in 200 μl RPMI for 90 mins at 37° C., cells were washed as described above and resuspended in 5 ml RPMI+0.1% BSA. 50 μl of ^51Cr labelled K562 leukemia target cells were added to each well of the KHYG-1 plate (Effector:Target 2:1) and incubated at 37° C. for 4 hours. ^51Cr release was assayed using a Skatron Harvesting Press and radioactivity estimated on a Wallac Wizard 1470 Automatic Gamma counter (Turku, Finland). The percentage of specific cytotoxicity was calculated by the formula: […]

[2] = read-out: Jurkat IC50; lysis of Jurkat T lymphoma cells by recombinant perforin, 0.1% BSA, 30 min pre-incubation, 4 hours at 37° C.
[3] = lysis of Jurkat T lymphoma cells by recombinant perforin, 0.1% BSA, 30 min pre-incubation, 4 hours at 37° C.; read-out: Jurkat IC50

Chain of recombinant perforin (P10820 whole entry): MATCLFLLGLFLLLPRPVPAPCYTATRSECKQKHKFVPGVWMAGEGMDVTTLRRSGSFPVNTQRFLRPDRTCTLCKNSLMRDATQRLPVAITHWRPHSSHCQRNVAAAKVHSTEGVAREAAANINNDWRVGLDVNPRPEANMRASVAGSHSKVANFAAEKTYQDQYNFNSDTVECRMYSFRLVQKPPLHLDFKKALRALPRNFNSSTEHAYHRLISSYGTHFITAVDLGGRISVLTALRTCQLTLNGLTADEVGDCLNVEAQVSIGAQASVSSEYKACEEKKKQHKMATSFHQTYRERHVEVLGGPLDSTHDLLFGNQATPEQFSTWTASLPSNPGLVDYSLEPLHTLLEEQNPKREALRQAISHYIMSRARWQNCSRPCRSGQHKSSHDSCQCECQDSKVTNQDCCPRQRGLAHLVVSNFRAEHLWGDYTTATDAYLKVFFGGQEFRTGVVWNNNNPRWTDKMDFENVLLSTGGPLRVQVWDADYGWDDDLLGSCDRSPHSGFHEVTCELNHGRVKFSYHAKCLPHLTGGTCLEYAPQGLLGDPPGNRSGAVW

melting point [°C] | SMILES | IC50 (recombinant perforin; [2]) [µM] | inhibition at 20 µM [1] [%] | IC50 (recombinant perforin; [3]) [µM]
285 to 288 | CN1Cc2cc(-c3ccc(-c4cncc(NS(=O)(=O)c5ccc(C(C)(C)C)cc5)c4)s3)ccc2C1=O [Compound 3, 4-(tert-Butyl)-N-(5-(5-(2-methyl-1-oxoisoindolin-5-yl)thiophen-2-yl)pyridin-3-yl)benzenesulfonamide] |  |  | 
292 to 294 | CN1Cc2cc(-c3ccc(-c4cncc(NS(=O)(=O)c5cccc(F)c5)c4)s3)ccc2C1=O [Compound 5, 3-Fluoro-N-(5-(5-(2-methyl-1-oxoisoindolin-5-yl)thiophen-2-yl)pyridin-3-yl)benzene-sulfonamide] |  |  | 
282 to 285 | CN1Cc2cc(-c3ccc(-c4cncc(NS(=O)(=O)c5ccc(F)c(F)c5)c4)s3)ccc2C1=O [Compound 7, 3,4-Difluoro-N-(5-(5-(2-methyl-1-oxoisoindolin-5-yl)thiophen-2-yl)pyridin-3-yl)benzene-sulfonamide] |  |  | 
293 to 296 | CN1Cc2cc(-c3ccc(-c4cncc(NS(=O)(=O)c5ccc(OC(F)(F)F)cc5)c4)s3)ccc2C1=O [Compound 24, N-(5-(5-(2-Methyl-1-oxoisoindolin-5-yl)thiophen-2-yl)pyridin-3-yl)-4-(trifluoromethoxy)benzenesulfonamide] |  |  | 
292 to 295 | CN1Cc2cc(-c3ccc(-c4cncc(NS(=O)(=O)c5ccc(C(F)(F)F)cc5Cl)c4)s3)ccc2C1=O [Compound 26, 2-Chloro-N-(5-(5-(2-methyl-1-oxoisoindolin-5-yl)thiophen-2-yl)pyridin-3-yl)-4-(trifluoromethyl)benzenesulfonamide] |  |  | 
260 to 265 | CN1Cc2cc(-c3ccc(-c4cncc(NS(=O)(=O)c5ccc(Cl)nc5)c4)s3)ccc2C1=O [Compound 33, 6-Chloro-N-(5-(5-(2-methyl-1-oxoisoindolin-5-yl)thiophen-2-yl)pyridin-3-yl)pyridine-3-sulfonamide] |  |  | 
280 to 283 | COc1ncc(-c2ccc(-c3ccc4c(c3)CN(C)C4=O)s2)cc1NS(=O)(=O)c1ccccc1 [Compound 36, N-(2-Methoxy-5-(5-(2-methyl-1-oxoisoindolin-5-yl)thiophen-2-yl)pyridin-3-yl)benzenesulphonamide] |  |  | 
269 to 272 | CN1Cc2cc(-c3ccc(-c4ccc(NS(=O)(=O)c5ccc(F)cc5F)nc4)s3)ccc2C1=O [Compound 42, 2,4-Difluoro-N-(5-(5-(2-methyl-1-oxoisoindolin-5-yl)thiophen-2-yl)pyridin-2-yl)benzenesulfonamide] |  |  | 
267 to 269 | CN1Cc2cc(-c3ccc(-c4cncc(NC(=O)c5ccc(F)cc5F)c4)s3)ccc2C1=O [Compound 47, 2,4-Difluoro-N-(5-(5-(2-methyl-1-oxoisoindolin-5-yl)thiophen-2-yl)pyridin-3-yl)benzamide] |  |  | 
229 to 230 | CC1c2cc(-c3ccc(-c4cncc(NS(=O)(=O)c5ccc(F)cc5F)c4)s3)ccc2C(=O)N1C (centres unmarked) [Compound 51, N-(5-(5-(2,3-Dimethyl-1-oxoisoindolin-5-yl)thiophen-2-yl)pyridin-3-yl)-2,4-difluorobenzenesulfonamide] |  |  | 
267 to 270 | O=C1NCCc2cc(-c3ccc(-c4cncc(NS(=O)(=O)c5ccc(F)cc5F)c4)s3)ccc21 [Compound 52, 2,4-Difluoro-N-(5-(5-(1-oxo-1,2,3,4-tetrahydroisoquinolin-6-yl)thiophen-2-yl)pyridin-3-yl)benzensulphonamide] |  |  | 
262 to 265 | CN1CCc2cc(-c3ccc(-c4cncc(NS(=O)(=O)c5ccc(F)cc5F)c4)s3)ccc2C1=O [Compound 53, 2,4-Difluoro-N-(5-(5-(2-methyl-1-oxo-1,2,3,4-tetrahydroisoquinolin-6-yl)thiophen-2-yl)pyridin-3-yl)benzenesulfonamide] |  |  | 
 | O=C1Cc2cc(-c3ccc(-c4cncc(NS(=O)(=O)c5ccc(F)cc5F)c4)s3)ccc2N1 [Compound 67, 2,4-Difluoro-N-(5-(5-(2-oxoindolin-5-yl)thiophen-2-yl)pyridin-3-yl)benzenesulfonamides] | 5.04 | 42.8 ± 10 | 
 | Cc1cc(F)ccc1S(=O)(=O)Nc1cncc(-c2ccc(-c3ccc4c(c3)CN(C)C4=O)s2)c1 [Compound 70, 4-Fluoro-2-methyl-N-(5-(5-(2-methyl-1-oxoisoindolin-5-yl)thiophen-2-yl)pyridin-3-yl)benzenesulphonamide] |  | 17.6 ± 13 | 5.53
 | Cn1ccc2cc(-c3ccc(-c4cncc(NS(=O)(=O)c5ccc(F)cc5F)c4)s3)ccc21 [Compound 72, 2,4-Difluoro-N-(5-(5-(1-methyl-1H-indol-5-yl)thiophen-2-yl)pyridin-3-yl)benzenesulfonamide] | 8.63 | 19 ± 17 | 
 | CN1Cc2cc(-c3ccc(-c4cncc(NS(=O)(=O)c5ccc(C(=O)O)cc5)c4)s3)ccc2C1=O [Compound 73, 4-(N-(5-(5-(2-Methyl-1-oxoisoindolin-5-yl)thiophen-2-yl)pyridin-3-yl)sulfamoyl)benzoic acid] |  | 56.9 ± 29.6 | 0.75
 | CN1Cc2cc(-c3ccc(-c4cncc(NS(=O)(=O)c5ccc(I)cc5)c4)s3)ccc2C1=O [Compound 74, 4-Iodo-N-(5-(5-(2-methyl-1-oxoisoindolin-5-yl)thiophen-2-yl)pyridin-3-yl)benzenesulfonamides] |  | 15.6 ± 5 | 5
 | CN1Cc2cc(-c3ccc(-c4cncc(NS(=O)(=O)c5ccc(Br)cc5Br)c4)s3)ccc2C1=O [Compound 75, 2,4-Dibromo-N-(5-(5-(2-methyl-1-oxoisoindolin-5-yl)thiophen-2-yl)pyridin-3-yl)benzenesulfonamides] |  | 49.2 ± 15 | 2.52
 | CN1Cc2cc(-c3ccc(-c4cncc(NS(=O)(=O)c5ccc(-c6ccno6)s5)c4)s3)ccc2C1=O [Compound 76, 5-(Isoxazol-5-yl)-N-(5-(5-(2-methyl-1-oxoisoindolin-5-yl)thiophen-2-yl)pyridin-3-yl)thiophene-2-sulfonamide] |  | 47.5 ± 10 | 7.1
 | CN1Cc2cc(-c3ccc(-c4cncc(NS(=O)(=O)c5ccc(-c6cnco6)cc5)c4)s3)ccc2C1=O [Compound 77, N-(5-(5-(2-Methyl-1-oxoisoindolin-5-yl)thiophen-2-yl)pyridin-3-yl)-4-(oxazol-5-yl)benzenesulfonamides] |  | 38.3 ± 5 | 3.05
 | CN1Cc2cc(-c3ccc(-c4cncc(NS(=O)(=O)c5ccccc5C(F)(F)F)c4)s3)ccc2C1=O [Compound 78, N-(5-(5-(2-Methyl-1-oxoisoindolin-5-yl)thiophen-2-yl)pyridin-3-yl)-2-(trifluoromethyl)benzenesulfonamide] |  | 56 ± 9 | 1.45
 | CN1Cc2cc(-c3ccc(-c4cncc(NS(=O)(=O)c5cccc(C(F)(F)F)c5)c4)s3)ccc2C1=O [Compound 81, N-(5-(5-(2-Methyl-1-oxoisoindolin-5-yl)thiophen-2-yl)pyridin-3-yl)-3-(trifluoromethyl)benzenesulfonamides] |  | 37.8 ± 19 | 0.91
 | CN1Cc2cc(-c3ccc(-c4cncc(NS(=O)(=O)c5ccccc5S(C)(=O)=O)c4)s3)ccc2C1=O [Compound 82, N-(5-(5-(2-Methyl-1-oxoisoindolin-5-yl)thiophen-2-yl)pyridin-3-yl)-2-(methylsulfonyl)benzenesulfonamides] |  | 30.5 ± 11 | 6.8
 | COC(=O)c1ccc(S(=O)(=O)Nc2cncc(-c3ccc(-c4ccc5c(c4)CN(C)C5=O)s3)c2)cc1 [Compound 84, Methyl 4-(N-(5-(5-(2-methyl-1-oxoisoindolin-5-yl)thiophen-2-yl)pyridin-3-yl)sulfamoyl)benzoate] |  | 8.84 | 8.16
 | COC(=O)c1ccccc1S(=O)(=O)Nc1cncc(-c2ccc(-c3ccc4c(c3)CN(C)C4=O)s2)c1 [Compound 86, Methyl 2-(N-(5-(5-(2-methyl-1-oxoisoindolin-5-yl)thiophen-2-yl)pyridin-3-yl)sulfamoyl)benzoate] |  | 2.3 ± 3 | 2.9
 | CN1Cc2cc(-c3ccc(-c4cncc(NS(=O)(=O)c5ccc(Br)s5)c4)s3)ccc2C1=O [Compound 87, 5-Bromo-N-(5-(5-(2-methyl-1-oxoisoindolin-5-yl)thiophen-2-yl)pyridin-3-yl)thiophene-2-sulphonamide] | 1.8 | 31.6 ± 6 | 
 | CN1Cc2cc(-c3ncc(-c4cncc(NS(=O)(=O)c5ccc(F)cc5F)c4)s3)ccc2C1=O [Compound 88, 2,4-Difluoro-N-(5-(2-(2-methyl-1-oxoisoindolin-5-yl)thiazol-5-yl)pyridin-3-yl)benzenesulphonamide] | 18.8 | 40.5 ± 23 | 
 | CN1Cc2cc(-c3ccc(-c4cncc(NS(=O)(=O)c5ccc(F)c(C(F)(F)F)c5)c4)s3)ccc2C1=O [Compound 89, 4-Fluoro-N-(5-(5-(2-methyl-1-oxoisoindolin-5-yl)thiophen-2-yl)pyridin-3-yl)-3-(trifluoromethyl)benzenesulphonamide] |  | 59.9 ± 13 | 3.75
